SMILES strings stand for the structures. Values after ≈ are worked out from the molar mass of the structure shown.

The record followed here is ChEMBL document CHEMBL5120828, “Identification and optimisation of a pyrimidopyridone series of IRAK4 inhibitors” (Bioorg Med Chem, 2022).

The target of data set [1] is T1, Interleukin-1 receptor-associated kinase 4 (Homo sapiens, UniProt Q9NWZ3).
T1 sequence (Q9NWZ3 whole entry): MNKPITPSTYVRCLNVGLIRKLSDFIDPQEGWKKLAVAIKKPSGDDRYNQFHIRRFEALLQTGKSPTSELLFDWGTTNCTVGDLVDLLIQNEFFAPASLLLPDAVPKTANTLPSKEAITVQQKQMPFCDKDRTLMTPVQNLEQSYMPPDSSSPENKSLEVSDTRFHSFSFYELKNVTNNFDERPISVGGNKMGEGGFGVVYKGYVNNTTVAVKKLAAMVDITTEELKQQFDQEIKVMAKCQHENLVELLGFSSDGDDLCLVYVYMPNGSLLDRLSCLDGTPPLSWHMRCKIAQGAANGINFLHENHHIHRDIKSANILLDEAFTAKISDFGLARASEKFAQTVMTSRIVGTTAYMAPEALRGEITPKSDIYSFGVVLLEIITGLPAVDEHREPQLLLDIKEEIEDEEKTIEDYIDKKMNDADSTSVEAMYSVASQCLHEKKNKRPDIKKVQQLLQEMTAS
In words: Inhibition of human recombinant IRAK4 assessed as unphosphorylated KKARFSRFAGSSPSQSSMVAR peptide substrate measured after 2 hrs by LC-MS/MS analysis.

Data set [2] concerns the target T1, Interleukin-1 receptor-associated kinase 4. The experiment in a line: Inhibition of IRAK4 in IL1-stimulated human KARPAS-299 cells assessed as fluorescence intensity. The data set is classed as cell-based.
Data set [3] can be described thus: Octanol/water partition coefficient, logP of compound at pH 7.4 by shake-flask method. Type of data set: physicochemical.
A short description of data set [4]: Metabolic stability in human liver microsomes assessed as intrinsic clearance. Type of data set: ADME.
Data set [5] is described as follows: Intrinsic permeability across apical to basolateral side in human Caco-2 cells. The data set is classed as ADME, cell-based. On the technique in general: Passage across Caco-2 layers is used to estimate intestinal permeability.
A short description of data set [6]: Efflux ratio of permeability in human Caco-2 cells. The data set is classed as ADME, cell-based.
A short description of data set [7]: Aqueous solubility of compound. As to conditions: buffer. The data set is classed as physicochemical.
Data set [8] in a line: Fraction unbound in human plasma. The data set is classed as ADME, cell-free.
For data set [9], the target named is Voltage-gated inwardly rectifying potassium channel KCNH2 (Homo sapiens, UniProt Q12809). In words: Inhibition of human ERG channel. Type of data set: toxicity.
Chain of Voltage-gated inwardly rectifying potassium channel KCNH2 (Q12809 whole entry): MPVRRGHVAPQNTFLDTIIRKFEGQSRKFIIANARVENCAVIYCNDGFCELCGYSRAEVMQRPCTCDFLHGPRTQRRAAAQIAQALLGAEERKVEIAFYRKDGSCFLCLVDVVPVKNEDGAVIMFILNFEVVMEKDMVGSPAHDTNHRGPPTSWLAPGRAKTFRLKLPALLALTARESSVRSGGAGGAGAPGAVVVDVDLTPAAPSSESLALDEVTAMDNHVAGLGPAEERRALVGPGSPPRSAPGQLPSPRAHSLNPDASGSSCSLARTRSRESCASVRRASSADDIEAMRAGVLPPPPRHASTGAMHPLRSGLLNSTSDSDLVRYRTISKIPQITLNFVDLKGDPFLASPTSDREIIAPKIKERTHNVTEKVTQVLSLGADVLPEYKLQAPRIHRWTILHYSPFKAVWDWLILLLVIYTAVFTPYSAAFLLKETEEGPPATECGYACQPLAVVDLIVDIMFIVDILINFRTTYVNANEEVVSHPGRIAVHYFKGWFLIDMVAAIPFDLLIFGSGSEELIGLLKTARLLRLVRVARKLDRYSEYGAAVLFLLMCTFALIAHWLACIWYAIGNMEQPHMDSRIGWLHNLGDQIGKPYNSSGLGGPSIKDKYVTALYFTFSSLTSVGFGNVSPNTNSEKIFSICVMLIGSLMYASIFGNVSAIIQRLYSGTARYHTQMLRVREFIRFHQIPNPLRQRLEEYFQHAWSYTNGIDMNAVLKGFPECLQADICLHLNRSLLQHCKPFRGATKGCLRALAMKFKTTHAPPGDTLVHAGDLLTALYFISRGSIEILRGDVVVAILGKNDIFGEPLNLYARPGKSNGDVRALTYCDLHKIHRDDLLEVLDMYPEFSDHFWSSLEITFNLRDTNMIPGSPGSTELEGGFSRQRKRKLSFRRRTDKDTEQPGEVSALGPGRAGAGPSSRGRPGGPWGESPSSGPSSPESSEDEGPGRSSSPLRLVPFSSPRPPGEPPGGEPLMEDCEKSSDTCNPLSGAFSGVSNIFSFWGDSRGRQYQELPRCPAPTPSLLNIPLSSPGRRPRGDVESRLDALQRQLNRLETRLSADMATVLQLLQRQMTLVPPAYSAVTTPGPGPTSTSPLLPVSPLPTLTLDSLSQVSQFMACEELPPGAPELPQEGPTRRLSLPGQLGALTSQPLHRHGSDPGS

`C[C@H](F)Cn1ccc2nc(Nc3cnn(C4CC5(C4)CN(C)C5)c3)nc(NC3(C)CC3)c2c1=O`: the IC50 in data set [1] worked out at 2 nM; in [2] it was 120 nM; in data set [9] it was 4.2 µM. In [3], this compound showed a logD of 2.1. The CLint in [4] came out at 10 µL/min/mg. For the same compound, in data set [5], the Papp A→B is 17 ×10⁻⁶ cm/s. In addition, the efflux ratio in [6] was 6.1. Also, the concentration in solution in data set [7] (solubility) came to 890 µM (≈ 415 µg/mL). For the same compound, the fraction unbound in [8] amounted to 0.17.

As a reminder, the IC50 is the concentration that inhibits the measured activity by half. The logD is the decadic logarithm of the distribution of all forms, ionised or not, between an organic phase and buffer at a given pH. Low values mean lower lipophilicity, high ones higher lipophilicity. One may read the Papp A→B as how fast a substance crosses the layer from the apical side. A low value points to poor permeation. By efflux ratio is commonly meant a quotient of directional permeabilities that is used to spot active efflux. As a reminder, the solubility is the dissolved amount per volume that the medium holds. A low value points to a poorly soluble substance. The term fraction unbound denotes the share of the substance not bound to proteins or other matrix. The low end stands for extensive binding, the high end for weak binding.
